From ChEMBL document CHEMBL1127219, “A convergent synthesis of 4-(2-benzothiazoyl)piperidines with antihistamic activity” (Bioorg Med Chem Lett, 1993)

Assays:
Cavia porcellus = species on record: Cavia porcellus; experiment: Concentration required to antagonize the histamine induced contractile response of guinea pig ileum; type: functional; settings: read-out: pA2 (converted)
[1] = Dose causing 50% death of the population when tested in mice; type: ADME; settings: mouse, in vivo

| Structure (SMILES) | Kb (Cavia porcellus) | LD50 [1] |
| --- | --- | --- |
| O=C(c1nc2ccccc2s1)C1CCN(CCc2ccccc2)CC1 | 15.8 nM | > 400 mg/kg |
| O=C(c1nc2ccccc2s1)C1CCN(CCc2ccc(F)cc2)CC1 | 3.98 nM | > 400 mg/kg |
| COc1ccc(CCN2CCC(C(O)(c3ccccc3)c3nc4ccccc4s3)CC2)cc1 (centres undefined) | 39.8 nM | – |
| CC(=O)Nc1ccc(OCCCN2CCC(C(=O)c3nc4ccccc4s3)CC2)cc1 | 7.94 nM | > 400 mg/kg |
| COC(=O)c1ccc(OCCCN2CCC(C(=O)c3nc4ccccc4s3)CC2)cc1 | 2.51 nM | > 400 mg/kg |
| COc1ccc(OCCCN2CCC(C(=O)c3nc4ccccc4s3)CC2)cc1 | 5.01 nM | > 400 mg/kg |
| COC(=O)CN1CCC(C(=O)c2nc3ccccc3s2)CC1 | ~100 nM | > 400 mg/kg |
| COc1ccc(CCN2CCC(C(O)c3nc4ccccc4s3)CC2)cc1 (centres undefined) | 6.31 nM | – |
| COc1ccc(CCN2CCC(C(=O)c3nc4ccccc4s3)CC2)cc1 | 0.501 nM | > 400 mg/kg |
| COc1cccc(CN2CCC(C(=O)c3nc4ccccc4s3)CC2)c1 | 50.1 nM | 400 mg/kg |
| C=C(c1nc2ccccc2s1)C1CCN(CCc2ccc(OC)cc2)CC1 | 1.58 nM | – |
